Results as given in PubChem BioAssay AID248 (DTP/NCI, 2004).
Inconclusive results and toxic doses are left out. Rule as the data show it: active = T/C of 150% or more; inactive = T/C below 125%.

Tested on: L1210 leukemia ip in BDF1 mice, survival T/C
Assay: NCI In Vivo Anticancer Drug Screen. Data for tumor model L1210 Leukemia (intraperitoneal) in B6D2F1 (BDF1) mice
Details: endpoint: mean survival time, higher = longer survival
Outline: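 Tumor cells were implanted, animals were treated, and survival was followed. The result divides the treated measurement by the vehicle-control measurement.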

[1] = dose: 100.0 mg/kg/injection, schedule: Q01DX009 (ip), vehicle: Klucel (hydroxypropylcellulose) (HPC)
[2] = dose: 100.0 mg/kg/injection, schedule: Q04DX003 (ip), vehicle: Klucel (hydroxypropylcellulose) (HPC)
[3] = dose: 200.0 mg/kg/injection, schedule: Q01DX009 (ip), vehicle: Klucel (hydroxypropylcellulose) (HPC)
[4] = dose: 200.0 mg/kg/injection, schedule: Q04DX003 (ip), vehicle: Klucel (hydroxypropylcellulose) (HPC)
[5] = dose: 400.0 mg/kg/injection, schedule: Q01DX009 (ip), vehicle: Klucel (hydroxypropylcellulose) (HPC)
[6] = dose: 400.0 mg/kg/injection, schedule: Q04DX003 (ip), vehicle: Klucel (hydroxypropylcellulose) (HPC)
[7] = dose: 25.0 mg/kg/injection, schedule: Q01DX009 (ip), vehicle: saline
[8] = dose: 100.0 mg/kg/injection, schedule: Q01DX009 (ip), vehicle: saline
[9] = dose: 100.0 mg/kg/injection, schedule: Q04DX003 (ip), vehicle: saline with Tween-80
[10] = dose: 100.0 mg/kg/injection, schedule: Q01DX001 (ip), vehicle: saline
[11] = dose: 200.0 mg/kg/injection, schedule: Q01DX001 (ip), vehicle: saline
[12] = dose: 400.0 mg/kg/injection, schedule: Q01DX001 (ip), vehicle: saline

Measured: T/C

COc1cccc(N=CC(=O)c2ccc(C)cc2)c1
inactive: dose: 75.0 mg/kg/injection, schedule: Q04DX003 (ip), vehicle: Klucel (hydroxypropylcellulose) (HPC) 95 % of control | dose: 150.0 mg/kg/injection, schedule: Q04DX003 (ip), vehicle: Klucel (hydroxypropylcellulose) (HPC) 89 % of control

CCCCCCCCCC(O)CC (stereo not drawn)
inactive: [1] 106 % of control | [2] 103 % of control | [3] 102 % of control | [4] 103 % of control | [5] 105 % of control | [6] 103 % of control

COc1cc(/C=N/Nc2cc(=O)[nH]c(N)n2)cc(OC)c1OC
inactive: [2] 98 % of control | [4] 100 % of control | [6] 100 % of control

Oc1cccnc1CN1CCCCC1
inactive: [7] 100 % of control | dose: 50.0 mg/kg/injection, schedule: Q01DX009 (ip), vehicle: saline 91 % of control | dose: 50.0 mg/kg/injection, schedule: Q04DX003 (ip), vehicle: saline 97 % of control | [8] 96 % of control | dose: 100.0 mg/kg/injection, schedule: Q04DX003 (ip), vehicle: saline 97 % of control

CC(C)OC(=O)Nc1cccc(Cl)c1
inactive: dose: 50.0 mg/kg/injection, schedule: Q01DX009 (ip), vehicle: saline sonified 100 % of control | dose: 100.0 mg/kg/injection, schedule: Q01DX009 (ip), vehicle: saline sonified 101 % of control | dose: 100.0 mg/kg/injection, schedule: Q04DX003 (ip), vehicle: saline sonified 87 % of control | dose: 200.0 mg/kg/injection, schedule: Q01DX009 (ip), vehicle: saline sonified 99 % of control | dose: 200.0 mg/kg/injection, schedule: Q04DX003 (ip), vehicle: saline sonified 94 % of control | dose: 400.0 mg/kg/injection, schedule: Q04DX003 (ip), vehicle: saline sonified 94 % of control

COc1cccc(NC(=O)c2cccc([N+](=O)[O-])c2)c1
inactive: dose: 100.0 mg/kg/injection, schedule: Q04DX002 (ip), vehicle: Klucel (hydroxypropylcellulose) (HPC) 94 % of control | dose: 200.0 mg/kg/injection, schedule: Q04DX002 (ip), vehicle: Klucel (hydroxypropylcellulose) (HPC) 98 % of control | dose: 400.0 mg/kg/injection, schedule: Q04DX002 (ip), vehicle: Klucel (hydroxypropylcellulose) (HPC) 91 % of control

S=C1SCN(C2CCCCCCCCCCC2)CN1C1CCCCCCCCCCC1
inactive: [9] 96 % of control | dose: 200.0 mg/kg/injection, schedule: Q04DX003 (ip), vehicle: saline with Tween-80 91 % of control | dose: 400.0 mg/kg/injection, schedule: Q04DX003 (ip), vehicle: saline with Tween-80 95 % of control

COc1ccccc1-n1c(=O)c(N=Nc2ccc(Br)cc2)c(O)n(-c2ccccc2Cl)c1=S
inactive: dose: 37.5 mg/kg/injection, schedule: Q01DX001 (ip), vehicle: Klucel (hydroxypropylcellulose) (HPC) 107 % of control | dose: 75.0 mg/kg/injection, schedule: Q01DX001 (ip), vehicle: Klucel (hydroxypropylcellulose) (HPC) 116 % of control | dose: 150.0 mg/kg/injection, schedule: Q01DX001 (ip), vehicle: Klucel (hydroxypropylcellulose) (HPC) 98 % of control

NCCCSc1ccc(Br)cc1
inactive: dose: 75.0 mg/kg/injection, schedule: Q01DX001 (ip), vehicle: other 102 % of control | dose: 150.0 mg/kg/injection, schedule: Q01DX001 (ip), vehicle: other 96 % of control | dose: 300.0 mg/kg/injection, schedule: Q01DX001 (ip), vehicle: other 92 % of control

OCC1OC(Nc2ncnc3c2ncn3C2OC(CO)C(O)C2O)C(O)C1O (stereo not drawn)
inactive: dose: 12.5 mg/kg/injection, schedule: Q01DX005 (ip), vehicle: saline 96 % of control | dose: 12.5 mg/kg/injection, schedule: Q01DX009 (ip), vehicle: saline 100 % of control | dose: 25.0 mg/kg/injection, schedule: Q01DX005 (ip), vehicle: saline 104 % of control | [7] 103 % of control | dose: 50.0 mg/kg/injection, schedule: Q01DX005 (ip), vehicle: saline 117 % of control

CCCCC(CC)CP(=O)(CC(CC)CCCC)CC(CC)CCCC (stereo not drawn)
inactive: dose: 55.0 mg/kg/injection, schedule: Q01DX Z (ip), vehicle: methylcellulose (MC) 104 % of control | dose: 83.0 mg/kg/injection, schedule: Q01DX Z (ip), vehicle: methylcellulose (MC) 100 % of control | dose: 125.0 mg/kg/injection, schedule: Q01DX Z (ip), vehicle: methylcellulose (MC) 108 % of control

CCOC1=NC(C)(C)CC(C)O1 (stereo not drawn)
inactive: dose: 25.0 mg/kg/injection, schedule: Q04DX003 (ip), vehicle: saline with Tween-80 95 % of control | dose: 50.0 mg/kg/injection, schedule: Q04DX003 (ip), vehicle: saline with Tween-80 101 % of control | [9] 102 % of control

C=CC1(C)CCC2C(=CCC3C2(C)CC(O)C(O)C3(C)COC2OC(CO)C(O)C(O)C2O)C1 (stereo not drawn)
inactive: dose: 75.0 mg/kg/injection, schedule: Q01DX001 (ip), vehicle: saline 96 % of control

CCCCS(=O)(=O)F
inactive: dose: 100.0 mg/kg/injection, schedule: Q04DX002 (ip), vehicle: saline with Tween-80 93 % of control

O=S(=O)(Nc1cc(Cl)c(NS(=O)(=O)c2ccccc2)c(S(=O)(=O)c2ccccc2)c1Cl)c1ccccc1
inactive: dose: 100.0 mg/kg/injection, schedule: Q01DX001 (ip), vehicle: Klucel (hydroxypropylcellulose) (HPC) 97 % of control | [2] 101 % of control | dose: 200.0 mg/kg/injection, schedule: Q01DX001 (ip), vehicle: Klucel (hydroxypropylcellulose) (HPC) 93 % of control | [4] 102 % of control | dose: 400.0 mg/kg/injection, schedule: Q01DX001 (ip), vehicle: Klucel (hydroxypropylcellulose) (HPC) 97 % of control | [6] 106 % of control

O=C1CCC(N2C(=O)c3ccccc3C2=O)C(=O)N1 (stereo not drawn)
inactive: dose: 25.0 mg/kg/injection, schedule: Q01DX009 (ip), vehicle: Klucel (hydroxypropylcellulose) (HPC) 112 % of control | dose: 25.0 mg/kg/injection, schedule: Q04DX003 (ip), vehicle: Klucel (hydroxypropylcellulose) (HPC) 109 % of control | dose: 31.3 mg/kg/injection, schedule: Q01DX Z (ip), vehicle: saline 102 % of control | dose: 50.0 mg/kg/injection, schedule: Q01DX001 (ip), vehicle: saline 105 % of control | dose: 50.0 mg/kg/injection, schedule: Q01DX009 (ip), vehicle: Klucel (hydroxypropylcellulose) (HPC) 111 % of control | dose: 50.0 mg/kg/injection, schedule: Q04DX003 (ip), vehicle: Klucel (hydroxypropylcellulose) (HPC) 95 % of control | dose: 62.5 mg/kg/injection, schedule: Q01DX Z (ip), vehicle: saline 94 % of control | [10] 105 % of control | [1] 103 % of control | [8] 96 % of control | [2] 98 % of control | dose: 125.0 mg/kg/injection, schedule: Q01DX Z (ip), vehicle: saline 104 % of control | [11] 111 % of control | [3] 100 % of control | dose: 200.0 mg/kg/injection, schedule: Q01DX009 (ip), vehicle: saline 102 % of control | [4] 98 % of control | dose: 250.0 mg/kg/injection, schedule: Q01DX Z (ip), vehicle: saline 102 % of control | [12] 109 % of control | [5] 101 % of control | dose: 400.0 mg/kg/injection, schedule: Q01DX009 (ip), vehicle: saline 98 % of control | [6] 106 % of control | dose: 800.0 mg/kg/injection, schedule: Q01DX009 (ip), vehicle: saline 95 % of control

Cc1cccc(N2CCC3(CC2)C(=O)NC(=S)NC3=O)c1
inactive: [10] 104 % of control | [11] 94 % of control | [12] 98 % of control
